Patent publication US9732067B2, “Compounds and methods for activating the apoptotic arm of the unfolded protein response” (University of Kansas, priority 2012, dated 2017)
Read-outs that look alike come from different tables or passages of the source.

Assays:
[1] = test system: chickens; conditions: grain from treated crops; cited from earlier work
[2] = test system: CHOP (apoptotic) and XBP1 (adaptive) arms of the UPR; conditions: prior screen, non-selective hits; cited from earlier work
[3] = test system: MEF with wild-type CHOP; assay: Proliferation / cytotoxicity (ATPLite) in MEF with wild-type CHOP; assay type: cell-based, mouse; conditions: Mus musculus; Table 5; MEF, ATPLite
Method: (§1) Several of the analogs derived from these changes were evaluated in secondary assays as they met the preliminary probe criteria for UPR-CHOP and UPR-XBP1 activity. Select compounds were assessed in a dose response manner for the ability to suppress proliferation in both the CHOP wild-type and CHOP knockout murine embryonic fibroblasts (−/− MEF KO CHOP)(Table 2).
(§2) It was determined whether ML291 and ML291 congeners would induce cell death (cytotoxicity as measured by ATPLite®, which measures production of ATP from living cells) in cells where these pathways are operant, but not activate them in the absence of the pathways.

[4] = test system: −/− MEF KO CHOP; assay: Proliferation / cytotoxicity (ATPLite) in MEF with CHOP KO; assay type: cell-based; conditions: Mus musculus; Table 5; MEF, ATPLite
Method: as §1, §2

[5] = test system: PERK-eIF2α-CHOP (apoptotic) arm of the Unfolded Protein Response pathway; assay: UPR-CHOP primary assay (CHO-CHOP luciferase reporter); assay type: cell-based
Method: The purpose of this assay was to detect activators of the PERK-eIF2α-CHOP (apoptotic) arm of the Unfolded Protein Response pathway.
Cells were passaged twice a week. […] Once the cells had reached confluency, old medium was aspirated and the flasks were washed with 20 mL DPBS per T225 flask. Cells were left in DPBS for about 30 seconds. Subsequently, 6.5 mL 0.05% trypsin solution was added into the flask and the flask was rocked gently so that the solution covered the surface. The cells were allowed to detach by incubating at room temperature for about 4 minutes. The flask was washed with […] fresh growth media and the cell suspension was collected in a 50 mL sterile conical tube. The collected cells were centrifuged at 900 rpm for 5 minutes and re-suspended in 1 mL fresh growth media. An additional 19 mL of growth media was added and the tube was mixed gently. The cell suspension was filtered with a cell strainer and the cells were counted.
As above, cells were grown to confluency, washed, and detached with 5 mL trypsin solution for 4 minutes at room temperature. The flask was washed with 25 mL fresh growth media and the cell suspension was collected in a 50 mL sterile conical tube. The cells were centrifuged at 500 rpm for 10 minutes and re-suspended carefully in 1 mL fresh assay medium. An additional 19 mL of assay media was added the cells were mixed gently. The cell suspension was filtered with a cell strainer and the number of cells was counted. Cell density was adjusted to 1.0×10^5 cells/mL in medium.
On day 1, cell suspensions were prepared and 500 cells in 5 μL of assay media were plated in the wells of columns 1-48 of a 1536-well assay plate. The plates were centrifuged at 500 rpm for 1 minute and subsequently incubated at 37° C., 100% relative humidity, 5% CO2 for 16-18 hours.
[…] […] The plates were centrifuged at 1000 rpm for 1 minute and subsequently incubated at 37° C., 100% relative humidity, 5% CO2 for 6 hours.
Following the 6-hour incubation the plate was incubated for 10 minutes at room temperature and 3 μL of STEADY-GLO was added to each well. The plates were centrifuged at 2000 rpm for 2 minutes and subsequently incubated at room temperature for 10 minutes. Luminescence was measured with a luminometer.
The MLPCN library of approximately 330,000 compounds was tested in the UPR-CHOP primary screen utilizing a luciferase-based reporter expressed in a CHO cell line to identify activators of the CHOP apoptotic pathway. […]

[6] = test system: IRE1/XBP1 (adaptive) UPR sub-pathway; assay: UPR XBP1 assay (CHO-XBP1-luciferase reporter cell line); assay type: cell-based
Method: A high-throughput screen of the NIH Molecular Libraries Small Molecule Repository (MLSMR) of >350,000 compounds was carried out using complementary cell-based reporter assays using stably transfected CHO-K1 cells that specifically identify activators of the PERK/eIF2α/CHOP (apoptotic), or the IRE1/XBP1 (adaptive) UPR sub-pathways.
The liquid samples were first confirmed at a single-point concentration of 10 μM in the […]. Of the liquid samples, 674 compounds were confirmed to have at least 32% activity at a 10 μM assay concentration. The confirmed compounds were further tested in dose response in the UPR-CHOP primary assay to obtain EC50 values. In addition, confirmed compounds were also dosed out in the CHO-XBP1-luciferase reporter cell line to identify compounds that were selective for the CHOP apoptotic over the adaptive XBP1 pathway.
The high throughput screening effort and subsequent validation produced two chemotypes, which were further explored by SAR analysis for potency, selectivity, the absence of reactive functionality, synthetic accessibility, physiochemical properties, and hit rate in unrelated PUBCHEM assays. SAR testing of re-constituted powders encompassed dose response testing of compounds in two assays: UPR-CHOP and UPR-XBP1 assays.

[7] = Table 9, average of four runs, F12 HAMs, 10% hi-FBS, read-out: EC50 UPR CHOP Assay
[8] = Table 9, average of four runs, F12 HAMs, 10% hi-FBS, read-out: EC50 UPR XBP1 Assay
[9] = Cricetulus griseus, read-out: CHOP EC50

Q: What does the source list for `CN(C)C(=S)SSC(=S)N(C)C` [NSC-1771]?
A: toxicity in chickens [1]: cause dyschondoplasia in the offspring of chickens; induction of the UPR arms [2]: potently induce both the CHOP (apoptotic) and XBP1 (adaptive) arms of the UPR

Q: With `O=C(Nc1ccc(S(=O)(=O)N2CCCCC2)cc1)c1ccc([N+](=O)[O-])o1` [Entry 8 (Table 1), N-(4-((piperidin-1-yl)sulfonyl)phenyl)-5-nitrofuran-2-carboxamide] as the compound, how does the IC50 [3] read?
A: 7.84 ± 1.2 µM

Q: And the IC50 [4]?
A: > 20 µM

Q: What does the source list for `O=C(Nc1ccc(S(=O)(=O)N2CCC(F)CC2)cc1)c1ccc([N+](=O)[O-])o1` [Entry 10 (Table 1), N-(4-((4-fluoropiperidin-1-yl)sulfonyl)phenyl)-5-nitrofuran-2-carboxamide]?
A: IC50 [3]: 17.5 ± 2.69 µM; IC50 [4]: > 20 µM

Q: Which EC50 [5, 7] does the source give for `O=C(Nc1ccc(S(=O)(=O)N2CCC(F)CC2)cc1)c1ccc([N+](=O)[O-])o1` [Analog 3] here?
A: 0.43 µM

Q: And the EC50 [6, 8]?
A: > 80 µM

Q: What does the source list for `CC(C)(C)C1CCN(S(=O)(=O)c2ccc(NC(=O)c3ccc([N+](=O)[O-])o3)cc2)CC1` [Entry 14 (Table 1), N-(4-((4-tert-butylpiperidin-1-yl)sulfonyl)phenyl)-5-nitrofuran-2-carboxamide]?
A: IC50 [3]: 1.36 ± 0.54 µM; IC50 [4]: 2.05 ± 0.29 µM

Q: With `CC1(C)CCN(S(=O)(=O)c2ccc(NC(=O)c3ccc([N+](=O)[O-])o3)cc2)CC1` [Entry 13 (Table 1), N-(4-((4,4-dimethylpiperidin-1-yl)sulfonyl)phenyl)-5-nitrofuran-2-carboxamide] as the compound, how does the EC50 [5, 9] read?
A: 0.5 µM

Q: What about the IC50 [3] of the same compound?
A: 3.02 ± 0.6 µM

Q: What about the IC50 [4] of the same compound?
A: 9.17 ± 3.34 µM

Q: What about the “XBP1 liability” value [6] of the same compound?
A: no discernable XBP1 liability

Q: Which IC50 [3] does the source give for `CC1CCN(S(=O)(=O)c2ccc(NC(=O)c3ccc([N+](=O)[O-])o3)cc2)CC1` [Entry 12 (Table 1), N-(4-((4-methylpiperidin-1-yl)sulfonyl)phenyl)-5-nitrofuran-2-carboxamide] here?
A: 4.57 ± 1.24 µM

Q: What about the IC50 [4] of the same compound?
A: 16.3 ± 0.99 µM

Q: What does the source list for `O=C(Nc1ccc(S(=O)(=O)N2CCOCC2)cc1)c1ccc([N+](=O)[O-])o1` [Entry 1 (Table 1)]?
A: CHOP potency / activity [5]: low micromolar; selectivity (XBP1 over CHOP) [5]: 35 fold; EC50 [5, 9]: 2.02 µM; EC50 ([6]; listed as SID104222717, read-out: XBP1 EC50): > 71 µM; EC50 ([6]; read-out: XBP1 EC50): 70 to 80 µM

Q: For `CCN(CC)C(=S)SSC(=S)N(CC)CC` [disulfiram, bis(diethylthiocarbamoyl)disulfide], which “induction of the UPR arms” value [2] is on record?
A: potently induce both the CHOP (apoptotic) and XBP1 (adaptive) arms of the UPR

Q: For `CC1CCN(S(=O)(=O)c2ccc(NC(=O)c3ccc([N+](=O)[O-])o3)cc2)CC1` [Analog 1], which EC50 [5, 7] is on record?
A: 0.76 µM

Q: What about the EC50 [6, 8] of the same compound?
A: > 80 µM

Q: With `CC(C)(C)C1CCN(S(=O)(=O)c2ccc(NC(=O)c3ccc([N+](=O)[O-])o3)cc2)CC1` [Analog 4] as the compound, how does the EC50 [5, 7] read?
A: 0.65 µM

Q: And the EC50 [6, 8]?
A: > 80 µM

Q: For `O=C(Nc1ccc(S(=O)(=O)N2CCOCC2)cc1)c1ccc([N+](=O)[O-])s1` [Entry 2 (Table 3)], which “loss in CHOP potency versus 5-nitro-2-furan parent” value [5] is on record?
A: 6 fold

Q: Which EC50 [5, 7] does the source give for `CC1(C)CCN(S(=O)(=O)c2ccc(NC(=O)c3ccc([N+](=O)[O-])o3)cc2)CC1` [Analog 5] here?
A: 0.77 µM

Q: And the EC50 [6, 8]?
A: > 80 µM

Q: Which results are given for `O=C(Nc1nc2c(F)cc(F)cc2s1)c1ccccn1` [SID 104222735]?
A: CHOP potency / activity [5]: low micromolar; EC50 ([6]; read-out: XBP1 EC50): 70 to 80 µM
